Test results from US20140350050A1, “PYRIDINE COMPOUNDS AS INHIBITORS OF KINASE” (TELIGENE LTD., priority 2011, published 2014).
pIC50: −log10 of the molar value.

What was measured:
ALK kinase = ALK kinase (Homo sapiens, UniProt Q9UM73); assay: ALK kinase assay; assay type: biochemical; conditions: ALK kinase assay; read-out: ALK (IC50 grading)
Protocol: An in vitro assay which determines the ability of a test compound to inhibit ALK kinase. a) kinase-tagged T7 phage strains were prepared in an E. coli host derived from the BL21 strain. E. coli were grown to log-phase and infected with T7 phage and incubated with shaking at 32° C. until lysis. The lysates were centrifuged and filtered to remove cell debris. The remaining kinases were produced in HEK-293 cells and subsequently tagged with DNA for qPCR detection. […] The liganded beads were blocked with excess biotin and washed with blocking buffer (SeaBlock (Pierce), 1% BSA, 0.05% Tween 20, 1 mM DTT) to remove unbound ligand and to reduce non-specific binding. […] All reactions were performed in polystyrene 96-well plates in a final volume of 0.135 ml. […] The kinase concentration in the eluates was measured by qPCR. […]
b) An alternative method to conduct the kinase assay with the following condition and procedure: Reagent: Base Reaction buffer; 20 mM Hepes (pH 7.5), 10 mM MgCl2, 1 mM EGTA, 0.02% Brij35, 0.02 mg/ml BSA, 0.1 mM Na3VO4, 2 mM DTT, 1% DMSO.
1. Preparing indicated substrate in freshly prepared Base Reaction Buffer
2. Delivering any required cofactors to the substrate solution above
3. Delivering indicated kinase into the substrate solution and gently mix
4. Delivering compounds in DMSO into the kinase reaction mixture
5. Delivering ^33P-ATP (specific activity 0.01 μCi/μl final) into the reaction mixture to initiate the reaction.
6. Incubating kinase reaction for 120 min. at room temperature
7. Reactions are spotted onto P81 ion exchange paper (Whatman #3698-915)
8. Washing filters extensively in 0.75% Phosphoric acid. […]
c) An alternative method to conduct the kinase assay with the following condition and procedure: The assay was performed using Kinase-Glo Plus luminescence kinase assay kit (Promega). It measures kinase activity by quantitating the amount of ATP remaining in solution following a kinase reaction. The luminescent signal from the assay is correlated with the amount of ATP present and is inversely correlated with the amount of kinase activity.
The compound were diluted in 10% DMSO and 5 μl of the dilution was added to a 50 μl reaction so that the final concentration of DMSO is 1% in all of reactions. All of the enzymatic reactions were conducted at 30° C. for 40 minutes. The 50 μl reaction mixture contains 40 mM Tris, pH 7.4, 10 mM MgCl2, 0.1 mg/ml BSA, 1 mM DTT, 0.2 mg/ml substrate peptide, 10 μM ATP and ALK (Table 2.3.1). After the enzymatic reaction, 50 μl of Kinase-Glo Plus Luminescence kinase assay solution (Promega) was added to each reaction and incubate the plate for 5 minutes at room temperature. Luminescence signal was measured using a BioTek Synergy 2 microplate reader. ALK activity assays were performed in duplicate at each concentration. The luminescence data were analyzed using the computer software, Graphpad Prism. The difference between luminescence intensities in the absence of ALK (Lut) and in the presence of ALK (Luc) was defined as 100% activity (Lut−Luc). Using luminescence signal (Lu) in the presence of the compound, % activity was calculated as % activity={(Lut−Lu)/(Lut−Luc)}×100%, where Lu=the luminescence intensity in the presence of the compound (all percent activities below zero were shown zero in the table). The values of % activity versus a series of compound concentrations were then plotted using non-linear regression analysis of Sigmoidal dose-response curve generated with the equation Y=B+(T−B)/1+10^((Log EC50−X)×Hill Slope), where Y=percent activity, B=minimum percent activity, T=maximum percent activity, X=logarithm of compound and Hill Slope=slope factor or Hill coefficient. The IC50 value was determined by the concentration causing a half-maximal percent activity.

[1] = target: T1, BAF3-EML4-ALK stable cell line (Homo sapiens, UniProt Q9UM73); assay: BAF3-EML4-ALK cell assay (MTT cell proliferation); assay type: cell-based; conditions: 72 hours, read-out: BAF3-EML4-ALK Cell (IC50 grading)
T1 construct: fused on or other part: Q9HC35 (Echinoderm microtubule-associated protein-like 4)
T1 sequence (Q9UM73 whole entry, change not shown, the tested form may be a part): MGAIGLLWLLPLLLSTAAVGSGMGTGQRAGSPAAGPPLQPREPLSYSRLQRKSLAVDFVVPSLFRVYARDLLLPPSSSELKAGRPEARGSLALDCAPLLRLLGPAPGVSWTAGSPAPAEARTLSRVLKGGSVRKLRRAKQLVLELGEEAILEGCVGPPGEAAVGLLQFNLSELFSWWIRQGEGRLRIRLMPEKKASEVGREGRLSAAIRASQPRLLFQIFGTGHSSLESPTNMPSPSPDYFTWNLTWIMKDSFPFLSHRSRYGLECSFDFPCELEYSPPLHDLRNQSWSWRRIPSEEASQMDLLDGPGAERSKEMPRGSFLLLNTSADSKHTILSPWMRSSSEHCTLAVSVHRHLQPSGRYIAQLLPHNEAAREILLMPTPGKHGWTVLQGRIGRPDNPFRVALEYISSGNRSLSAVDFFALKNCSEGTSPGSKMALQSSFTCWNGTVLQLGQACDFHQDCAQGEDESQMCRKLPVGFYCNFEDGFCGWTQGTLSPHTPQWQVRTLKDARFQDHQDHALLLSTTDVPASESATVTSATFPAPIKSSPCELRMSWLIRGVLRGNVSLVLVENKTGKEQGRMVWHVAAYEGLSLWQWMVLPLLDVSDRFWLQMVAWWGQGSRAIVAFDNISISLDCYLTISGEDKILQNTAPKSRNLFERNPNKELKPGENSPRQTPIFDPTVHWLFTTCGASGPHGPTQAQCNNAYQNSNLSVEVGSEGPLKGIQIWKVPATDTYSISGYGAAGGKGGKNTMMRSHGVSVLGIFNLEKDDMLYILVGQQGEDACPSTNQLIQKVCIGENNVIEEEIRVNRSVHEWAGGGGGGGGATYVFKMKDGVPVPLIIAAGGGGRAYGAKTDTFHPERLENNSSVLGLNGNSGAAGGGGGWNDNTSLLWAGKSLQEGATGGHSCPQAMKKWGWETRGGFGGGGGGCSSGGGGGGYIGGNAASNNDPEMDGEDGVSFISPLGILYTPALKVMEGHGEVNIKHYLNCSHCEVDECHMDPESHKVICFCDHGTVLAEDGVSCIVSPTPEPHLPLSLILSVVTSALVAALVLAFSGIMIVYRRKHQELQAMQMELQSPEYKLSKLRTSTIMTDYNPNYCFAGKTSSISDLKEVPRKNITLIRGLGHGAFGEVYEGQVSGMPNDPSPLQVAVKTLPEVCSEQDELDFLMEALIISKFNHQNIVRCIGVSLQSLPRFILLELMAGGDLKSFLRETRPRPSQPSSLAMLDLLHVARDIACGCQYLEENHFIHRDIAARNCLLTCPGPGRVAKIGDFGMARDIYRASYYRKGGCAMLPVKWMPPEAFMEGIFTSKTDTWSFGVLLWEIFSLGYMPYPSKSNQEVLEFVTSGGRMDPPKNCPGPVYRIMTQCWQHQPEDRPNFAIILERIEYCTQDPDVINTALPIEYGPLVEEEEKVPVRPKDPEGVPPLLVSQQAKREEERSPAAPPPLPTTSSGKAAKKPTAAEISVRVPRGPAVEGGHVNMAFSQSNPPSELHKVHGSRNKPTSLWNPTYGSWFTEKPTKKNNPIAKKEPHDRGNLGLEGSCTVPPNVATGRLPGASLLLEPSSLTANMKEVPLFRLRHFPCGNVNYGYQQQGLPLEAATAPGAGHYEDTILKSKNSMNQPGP
Protocol: BAF3-EML4-ALK Cell Assay:
A method of establishing BAF3-EML4-ALK stable cell line: Transfer 5×10^6 BAF3 cells to a new tube, pellet the cells, and remove PBS by aspiration.; Resuspend the cells in 1 ml electroporation buffer, this provides 5×10^6 of cells; Transfer 200 μl of cell suspension to EP tube, add 5 ug DNA, flip and place it on ice for 10 min; Pipet the 200 μl cell suspension into 2 mm electroporation cuvette; Place the cuvette into shockpod, close the lid, and press the PULSE button; Set parameters: Expentional decay pulse: VOL=200 V; CAP=900 uF, RES=1000Ω; Transfer all cells from electroporation cuvette to 6 well plate, adding 2 ml DMEMF12 containing 5 ng/ml IL3, 24 h later, replace the medium with DMEM F12 containing 2 μg/ml blasticidin S and 5 ng/ml IL3, maintain for 3 days; change the medium with DMEM F12 containing 2 ug/ml blasticidin S and 2.5 ng/ml IL3, maintain 3 days; change the medium with DMEM F12 containing 2 ug/Ml blasticidin S, maintain to culture.
MTT Cell proliferation assay: 5×10^3 per well cell with 100 μl medium was seeded in 96-well plate; 24 hours later, 100 μl fresh medium with various concentration of compounds; After the cells were treated by compounds for 72 hours, add 20 μl MTT (5 mg/ml) into each wells; The plate is incubated at 37° C. for 4 hours; Centrifuge the plate at 800 g for 10 mins, Aspirated the medium, add 150 μl DMSO into each well. Shake plates gently for 10 mins, Measure the absorbance at 570 nm on plate reader; IR=(WC−WT)/WC.

[2] = PK (pharmacokinetic) study in rat, cassette dosing; assay type: in vivo; conditions: male, Wistar, plasma
Protocol: A representative protocol for the PK (pharmacokinetic) is as followed: Animals used were Wistar rat, male and weight about 300-359 grams. Compound 21 and 22 were given either IV or oral to the same animals by cassette dosing. The dose for each compound is 1 mg/kg (volume 5 ml/kg) IV and 2 mg/kg (volume 10 ml/kg) oral. The formulation for IV was in PBS, the pH is adjusted by dilute HCl until compounds were totally dissolved. 0.5% Na-CMC suspension was used for the oral formulation. Sample collection: for IV route, plasma sample were collected at the time point 0.083, 0.25, 0.5, 1, 1.5, 2, 4, 6, 8, 12, 24 h. For oral route, plasma sample were collected at the time point 0.167, 0.33, 0.5, 1, 2, 4, 6, 8, 12, 24 h. Analysis: LC-MS/MS is used to calculate PK parameters: t1/2, tmax, Cmax, Vss and AUC etc.

Sequence of ALK kinase (Q9UM73 19-1620): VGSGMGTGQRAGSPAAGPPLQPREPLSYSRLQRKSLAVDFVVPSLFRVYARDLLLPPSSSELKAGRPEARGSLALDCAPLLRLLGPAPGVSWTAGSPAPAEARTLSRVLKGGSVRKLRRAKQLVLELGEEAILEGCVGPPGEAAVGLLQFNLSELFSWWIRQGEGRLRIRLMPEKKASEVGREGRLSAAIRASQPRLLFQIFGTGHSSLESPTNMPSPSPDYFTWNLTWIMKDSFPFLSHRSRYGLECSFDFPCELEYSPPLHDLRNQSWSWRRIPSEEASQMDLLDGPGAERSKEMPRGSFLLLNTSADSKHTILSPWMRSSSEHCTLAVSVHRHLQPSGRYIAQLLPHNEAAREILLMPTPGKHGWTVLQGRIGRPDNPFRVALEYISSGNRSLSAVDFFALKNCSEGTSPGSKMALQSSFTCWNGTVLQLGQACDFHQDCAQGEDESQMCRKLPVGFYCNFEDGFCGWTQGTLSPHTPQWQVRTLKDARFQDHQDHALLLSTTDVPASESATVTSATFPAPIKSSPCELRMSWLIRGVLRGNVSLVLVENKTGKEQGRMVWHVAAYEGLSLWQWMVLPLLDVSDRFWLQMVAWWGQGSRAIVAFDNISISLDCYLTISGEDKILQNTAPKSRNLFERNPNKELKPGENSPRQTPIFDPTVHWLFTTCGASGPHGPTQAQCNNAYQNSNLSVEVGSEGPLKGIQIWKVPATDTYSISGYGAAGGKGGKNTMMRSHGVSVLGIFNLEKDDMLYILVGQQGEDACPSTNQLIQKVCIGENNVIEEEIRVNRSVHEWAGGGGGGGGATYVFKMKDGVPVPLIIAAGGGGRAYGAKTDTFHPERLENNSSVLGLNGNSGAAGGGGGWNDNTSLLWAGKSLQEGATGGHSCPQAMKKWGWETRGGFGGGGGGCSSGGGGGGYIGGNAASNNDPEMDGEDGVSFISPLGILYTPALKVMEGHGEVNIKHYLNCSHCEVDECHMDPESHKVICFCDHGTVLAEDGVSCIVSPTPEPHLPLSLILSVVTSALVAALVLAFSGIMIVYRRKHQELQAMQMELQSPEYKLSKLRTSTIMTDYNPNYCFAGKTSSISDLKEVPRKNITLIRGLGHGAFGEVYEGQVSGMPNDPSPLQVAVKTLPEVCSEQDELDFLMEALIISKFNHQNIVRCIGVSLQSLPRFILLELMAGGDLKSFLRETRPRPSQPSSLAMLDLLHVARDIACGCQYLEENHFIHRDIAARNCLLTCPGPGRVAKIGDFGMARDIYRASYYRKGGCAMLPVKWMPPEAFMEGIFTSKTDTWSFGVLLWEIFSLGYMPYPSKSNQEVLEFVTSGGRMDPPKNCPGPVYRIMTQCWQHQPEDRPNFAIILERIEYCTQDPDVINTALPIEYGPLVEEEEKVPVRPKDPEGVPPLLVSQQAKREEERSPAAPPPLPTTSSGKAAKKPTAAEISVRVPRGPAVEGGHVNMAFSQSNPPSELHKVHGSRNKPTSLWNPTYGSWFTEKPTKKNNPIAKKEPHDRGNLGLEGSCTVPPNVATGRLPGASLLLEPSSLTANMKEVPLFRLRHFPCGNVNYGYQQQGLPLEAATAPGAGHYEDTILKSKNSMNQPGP

Row | pIC50 (ALK kinase) | GI50 [1] [nM] | Structure (SMILES) | other results
1 | ≥ 7.00 | ≤ 100 | CCN1CCC(n2cc(-c3cnc(N)c(OC(C)c4c(Cl)ccc(F)c4Cl)c3)cn2)CC1 (centres unmarked) [Compound 7, 3-(1-(2,6-dichloro-3-fluorophenyl)ethoxy)-5-(1-(1-ethylpiperidin-4-yl)-1H-pyrazol-4-yl)pyridin-2-amine] | –
2 | ≥ 6.00 | ≤ 1000 | CCNc1ncc(-c2cnn(C3CCNCC3)c2)cc1OC(C)c1c(Cl)ccc(F)c1Cl (centres unmarked) [Compound 11, 3-(1-(2,6-dichloro-3-fluorophenyl)ethoxy)-N-ethyl-5-(1-(piperidin-4-yl)-1H-pyrazol-4-yl)pyridin-2-amine] | –
3 | 6.00 to 7.00 | ≤ 1000 | [2H]C([2H])([2H])N1CCC(n2cc(-c3cnc(N)c(O[C@@H](C)c4c(Cl)ccc(F)c4Cl)c3)cn2)CC1 [Compound 15, (S)-3-(1-(2,6-dichloro-3-fluorophenyl)ethoxy)-5-(1-(1-d3-methyl-piperidin-4-yl)-1H-pyrazol-4-yl)pyridin-2-amine] | –
4 | ≥ 7.00 | ≤ 100 | CC(=O)Nc1ncc(-c2cnn(C3CCNCC3)c2)cc1OC(C)c1c(Cl)ccc(F)c1Cl (centres unmarked) [Compound 9, N-(3-(1-(2,6-dichloro-3-fluorophenyl)ethoxy)-5-(1-(piperidin-4-yl)-1H-pyrazol-4-yl)pyridin-2-yl)acetamide] | –
5 | ≥ 7.00 | ≤ 100 | CCN1CCC(n2cc(-c3cnc(N)c(O[C@H](C)c4c(Cl)ccc(F)c4Cl)c3)cn2)CC1 [Compound 21, (R)-3-(1-(2,6-dichloro-3-fluorophenyl)ethoxy)-5-(1-(1-ethylpiperidin-4-yl)-1H-pyrazol-4-yl)pyridin-2-amine] | AUC(0-inf) ([2]; IV cassette 1 mg/kg): 443 ng·h/mL; AUC(0-t) ([2]; IV cassette 1 mg/kg): 442 ng·h/mL; Cmax ([2]; IV cassette 1 mg/kg): 317 ng/mL; MRT ([2]; IV cassette 1 mg/kg): 2.89 h; Tmax ([2]; IV cassette 1 mg/kg): 0.083 h; clearance ([2]; IV cassette 1 mg/kg): 37.7 mL/min/kg; half-life ([2]; IV cassette 1 mg/kg): 2.89 h; AUC(0-inf) ([2]; oral cassette 2 mg/kg): 154 ng·h/mL; AUC(0-t) ([2]; oral cassette 2 mg/kg): 148 ng·h/mL; Cmax ([2]; oral cassette 2 mg/kg): 22.9 ng/mL; MRT ([2]; oral cassette 2 mg/kg): 4.97 h; Tmax ([2]; oral cassette 2 mg/kg): 4 h; half-life ([2]; oral cassette 2 mg/kg): 2.99 h; bioavailability ([2]; oral cassette 2 mg/kg vs IV 1 mg/kg, read-out: F (bioavailability)): 16.8%
6 | 6.00 to 7.00 | ≤ 1000 | [2H]C([2H])([2H])C([2H])([2H])N1CCC(n2cc(-c3cnc(N)c(O[C@@H](C)c4c(Cl)ccc(F)c4Cl)c3)cn2)CC1 [Compound 17, (S)-3-(1-(2,6-dichloro-3-fluorophenyl)ethoxy)-5-(1-(1-d5-ethyl-piperidin-4-yl)-1H-pyrazol-4-yl)pyridin-2-amine] | –
7 | 6.00 to 7.00 | ≤ 1000 | CCN1CCC(n2cc(-c3cnc(N)c(O[C@@H](C)c4c(Cl)ccc(F)c4Cl)c3)cn2)CC1 [Compound 16, (S)-3-(1-(2,6-dichloro-3-fluorophenyl)ethoxy)-5-(1-(1-ethylpiperidin-4-yl)-1H-pyrazol-4-yl)pyridin-2-amine] | –
8 | ≥ 6.00 | ≤ 1000 | CCCNc1ncc(-c2cnn(C3CCNCC3)c2)cc1OC(C)c1c(Cl)ccc(F)c1Cl (centres unmarked) [Compound 12, 3-(1-(2,6-dichloro-3-fluorophenyl)ethoxy)-5-(1-(piperidin-4-yl)-1H-pyrazol-4-yl)-N-propylpyridin-2-amine] | –
9 | 6.00 to 7.00 | ≤ 1000 | C[C@H](Oc1cc(-c2cnn(C3CCN(C)CC3)c2)cnc1N)c1c(Cl)ccc(F)c1Cl [Compound 14, (S)-3-(1-(2,6-dichloro-3-fluorophenyl)ethoxy)-5-(1-(1-methylpiperidin-4-yl)-1H-pyrazol-4-yl)pyridin-2-amine] | –
10 | ≥ 7.00 | ≤ 100 | C[C@@H](Oc1cc(-c2cnn(C3CCN(C)CC3)c2)cnc1N)c1c(Cl)ccc(F)c1Cl [Compound 19, (R)-3-(1-(2,6-dichloro-3-fluorophenyl)ethoxy)-5-(1-(1-methylpiperidin-4-yl)-1H-pyrazol-4-yl)pyridin-2-amine] | –
11 | 6.00 to 7.00 | ≤ 1000 | CC(=O)Nc1ncc(-c2cnn(C3CCNCC3)c2)cc1O[C@@H](C)c1c(Cl)ccc(F)c1Cl [Compound 13, (S)—N-(3-(1-(2,6-dichloro-3-fluorophenyl)ethoxy)-5-(1-(piperidin-4-yl)-1H-pyrazol-4-yl)pyridin-2-yl)acetamide] | –
12 | 6.00 to 7.00 | 100 to 1000 | CCN1CCC(n2cc(-c3cnc(NC(C)=O)c(OC(C)c4c(Cl)ccc(F)c4Cl)c3)cn2)CC1 (centres unmarked) [Compound 10, N-(3-(1-(2,6-dichloro-3-fluorophenyl)ethoxy)-5-(1-(1-ethylpiperidin-4-yl)-1H-pyrazol-4-yl)pyridin-2-yl)acetamide] | –
